Laboratory results reported in patent EP4707280A1, “1,4-CINEOLE DERIVATIVE AND INTERMEDIATE THEREOF, HERBICIDE CONTAINING SAID DERIVATIVE AS ACTIVE INGREDIENT, METHOD FOR USING HERBICIDE, AND METHOD FOR PREPARING AGROCHEMICAL COMPOSITION” (HOKKO CHEMICAL INDUSTRY CO., LTD., priority 2023, dated 2024).

Experiments:
Type in all cases: in vivo
Echinochloa crus-galli [1] = assay: Test Example 3: herbicidal effect test by soil application in upland field; conditions: Echinochloa crus-galli, 120 g per 10 ares, sprayed one day after sowing, 14 days after application, read-out: weed inhibition rate
Procedure, shortened: (§1)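 Pre-emergence test: seeds mixed into top 1 cm of alluvial loam upland soil in pots; emulsifiable concentrate diluted in water sprayed on soil one day after sowing at 100 L/10 a, 120 g a.i./10 a. Weed inhibition rate (%) scored at 14 days, in duplicate.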

Digitaria ciliaris [2] = assay: as above; conditions: Digitaria ciliaris, 120 g per 10 ares, sprayed one day after sowing, 14 days after application, read-out: weed inhibition rate
Procedure, shortened: as §1

Echinochloa crus-galli [3] = assay: Test Example 4: herbicidal effect test by stem and leaf treatment in upland field; conditions: Echinochloa crus-galli; 120 g per 10 ares; sprayed seven days after sowing, upland soil; 14 days after application; read-out: weed inhibition rate
Scirpus juncoides [4] = assay: Test Example 5: herbicidal effect test by soil application in paddy rice (low dose); conditions: Schoenoplectiella juncoides, 336 h, 7.5 g per 10 ares, applied immediately after sowing, flooded pots, 14 days after application, read-out: weed inhibition rate
Procedure, shortened: (§2)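 Paddy soil in Wagner pots was fertilized (N:P:K 16:16:16), puddled, sown with 30 seeds per weed species at 0–1 cm, then flooded to ~3 cm in a glass greenhouse. Emulsifiable concentrate diluted in water was dropper-applied into floodwater immediately, at 7.5 g active ingredient per 10 ares; duplicates, scored at 14 days.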

Monochoria vaginalis [5] = assay: as above; conditions: Pontederia vaginalis, 336 h, 7.5 g per 10 ares, applied immediately after sowing, flooded pots, 14 days after application, read-out: weed inhibition rate
Procedure, shortened: as §2

Monochoria vaginalis [6] = assay: Test Example 2: herbicidal effect test by application during growth period of paddy rice; conditions: Pontederia vaginalis; 120 g per 10 ares; applied seven days after sowing, flooded pots; 14 days after application; read-out: weed inhibition rate
Procedure, shortened: (§3)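 Paddy soil in Wagner pots was puddled with N:P:K 16:16:16 fertilizer, sown with 30 weed seeds per species at 0–1 cm and flooded to about 3 cm. Seven days after sowing, a water-diluted emulsifiable concentrate was dropped onto the water at 120 g active ingredient per 10 ares. Weed inhibition (%) was scored at 14 days, in duplicate.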

[7] = system: Echinochloa crus-galli var. formosensis; assay: as above; conditions: Echinochloa crus-galli; 120 g per 10 ares; applied seven days after sowing, flooded pots; 14 days after application; read-out: weed inhibition rate
Procedure, shortened: as §3

Digitaria ciliaris [8] = assay: Test Example 4: herbicidal effect test by stem and leaf treatment in upland field; conditions: Digitaria ciliaris; 120 g per 10 ares; sprayed seven days after sowing, upland soil; 14 days after application; read-out: weed inhibition rate
Echinochloa crus-galli [9] = assay: Test Example 8: herbicidal effect test by stem and leaf treatment in upland field (low dose); conditions: Echinochloa crus-galli; 7.5 g per 10 ares; sprayed seven days after sowing, upland soil; 14 days after application; read-out: weed inhibition rate
[10] = system: Echinochloa crus-galli var. formosensis; assay: Test Example 6: herbicidal effect test by application during growth period of paddy rice (low dose); conditions: Echinochloa crus-galli; 7.5 g per 10 ares; applied seven days after sowing, flooded pots; 14 days after application; read-out: weed inhibition rate
Procedure, shortened: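 Paddy soil in flooded Wagner pots (about 3 cm water), weeds sown at 0–1 cm, 30 seeds each, grown in a glass greenhouse. Seven days after sowing, water-diluted emulsifiable concentrate was dropped into the water at 7.5 g active ingredient per 10 ares. Weed inhibition rate (%) was scored 14 days after application, in duplicate.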

Scirpus juncoides [11] = assay: Test Example 2: herbicidal effect test by application during growth period of paddy rice; conditions: Schoenoplectiella juncoides; 120 g per 10 ares; applied seven days after sowing, flooded pots; 14 days after application; read-out: weed inhibition rate
Procedure, shortened: as §3

Cc1cccc(C)c1CO[C@@H]1C[C@]2(C(C)C)O[C@@]1(C)CC2=O [2-5, (1R,4S,5R)-5-((2,6-dimethylbenzyl)oxy)-1-isopropyl-4-methyl-7-oxabicyclo[2.2.1]heptan-2-one]
≥ 80%: inhibition at 1200 g/ha (Echinochloa crus-galli [1]) | inhibition at 1200 g/ha (Digitaria ciliaris [2]) | inhibition at 1200 g/ha (Echinochloa crus-galli [3]) | inhibition at 75 g/ha (Scirpus juncoides [4]) | inhibition at 75 g/ha (Monochoria vaginalis [5]) | inhibition at 1200 g/ha (Monochoria vaginalis [6]) | inhibition at 1200 g/ha [7] | inhibition at 1200 g/ha (Digitaria ciliaris [8]) | inhibition at 75 g/ha (Echinochloa crus-galli [9])

CC(C)[C@]12C[C@@H](OCc3cccc(F)c3F)[C@](C)(CC1=O)O2 [2-14, (1R,4S,5R)-5-((2,3-difluorobenzyl)oxy)-1-isopropyl-4-methyl-7-oxabicyclo[2.2.1]heptan-2-one]
≥ 80%: inhibition at 1200 g/ha (Echinochloa crus-galli [1]) | inhibition at 1200 g/ha (Digitaria ciliaris [2]) | inhibition at 75 g/ha [10] | inhibition at 1200 g/ha (Echinochloa crus-galli [3]) | inhibition at 75 g/ha (Scirpus juncoides [4]) | inhibition at 75 g/ha (Monochoria vaginalis [5]) | inhibition at 1200 g/ha [7] | inhibition at 1200 g/ha (Digitaria ciliaris [8]) | inhibition at 75 g/ha (Echinochloa crus-galli [9])

C=C1C[C@]2(C)O[C@@]1(C(C)C)C[C@H]2OCc1ccccc1C [2-72, (1R,4S,5R)-1-isopropyl-4-methyl-5-((2-methylbenzyl)oxy)-2-methylene-7-oxabicyclo[2.2.1]heptane]
≥ 80%: inhibition at 1200 g/ha (Echinochloa crus-galli [1]) | inhibition at 1200 g/ha (Digitaria ciliaris [2]) | inhibition at 75 g/ha [10] | inhibition at 1200 g/ha (Echinochloa crus-galli [3]) | inhibition at 75 g/ha (Monochoria vaginalis [5]) | inhibition at 1200 g/ha (Scirpus juncoides [11]) | inhibition at 1200 g/ha (Monochoria vaginalis [6]) | inhibition at 1200 g/ha [7] | inhibition at 1200 g/ha (Digitaria ciliaris [8]) | inhibition at 75 g/ha (Echinochloa crus-galli [9])

Cc1ccccc1CO[C@@H]1C[C@]2(C(C)C)O[C@@]1(C)C/C2=N\O [2-191, (1R,4S,5R,E)-1-isopropyl-4-methyl-5-((2-methylbenzyl)oxy)-7-oxabicyclo[2.2.1]heptan-2-one oxime]
≥ 80%: inhibition at 1200 g/ha (Echinochloa crus-galli [1]) | inhibition at 1200 g/ha (Digitaria ciliaris [2]) | inhibition at 75 g/ha [10] | inhibition at 1200 g/ha (Echinochloa crus-galli [3]) | inhibition at 75 g/ha (Monochoria vaginalis [5]) | inhibition at 1200 g/ha (Scirpus juncoides [11]) | inhibition at 1200 g/ha (Monochoria vaginalis [6]) | inhibition at 1200 g/ha [7] | inhibition at 1200 g/ha (Digitaria ciliaris [8]) | inhibition at 75 g/ha (Echinochloa crus-galli [9])

CC(C)[C@]12C[C@@H](OCc3ccccc3F)[C@](C)(C/C1=N\O)O2 [2-197, (1R,4S,5R,E)-5-((2-fluorobenzyl)oxy)-1-isopropyl-4-methyl-7-oxabicyclo[2.2.1]heptan-2-one oxime]
≥ 80%: inhibition at 1200 g/ha (Echinochloa crus-galli [1]) | inhibition at 1200 g/ha (Digitaria ciliaris [2]) | inhibition at 75 g/ha [10] | inhibition at 1200 g/ha (Echinochloa crus-galli [3]) | inhibition at 75 g/ha (Monochoria vaginalis [5]) | inhibition at 1200 g/ha (Scirpus juncoides [11]) | inhibition at 1200 g/ha (Monochoria vaginalis [6]) | inhibition at 1200 g/ha [7] | inhibition at 1200 g/ha (Digitaria ciliaris [8]) | inhibition at 75 g/ha (Echinochloa crus-galli [9])

Cc1cccc(C)c1CO[C@@H]1C[C@@]2(C(C)C)C=C[C@]1(C)O2 [3-3, (1R,4S,5R)-5-[(2,6-dimethylphenyl)methoxy]-4-methyl-1-isopropyl-7-oxabicyclo[2.2.1]hept-2-ene]
≥ 80%: inhibition at 1200 g/ha (Echinochloa crus-galli [1]) | inhibition at 1200 g/ha (Digitaria ciliaris [2]) | inhibition at 75 g/ha [10] | inhibition at 1200 g/ha (Echinochloa crus-galli [3]) | inhibition at 75 g/ha (Scirpus juncoides [4]) | inhibition at 75 g/ha (Monochoria vaginalis [5]) | inhibition at 1200 g/ha (Scirpus juncoides [11]) | inhibition at 1200 g/ha [7] | inhibition at 1200 g/ha (Digitaria ciliaris [8])

CC(C)[C@]12C=C[C@](C)(O1)[C@H](OCc1c(F)cccc1F)C2 [3-7, (1R,4S,5R)-5-[(2,6-difluorophenyl)methoxy]-4-methyl-1-isopropyl-7-oxabicyclo[2.2.1]hept-2-ene]
≥ 80%: inhibition at 1200 g/ha (Echinochloa crus-galli [1]) | inhibition at 1200 g/ha (Digitaria ciliaris [2]) | inhibition at 75 g/ha [10] | inhibition at 1200 g/ha (Echinochloa crus-galli [3]) | inhibition at 75 g/ha (Scirpus juncoides [4]) | inhibition at 75 g/ha (Monochoria vaginalis [5]) | inhibition at 1200 g/ha (Scirpus juncoides [11]) | inhibition at 1200 g/ha [7] | inhibition at 1200 g/ha (Digitaria ciliaris [8]) | inhibition at 75 g/ha (Echinochloa crus-galli [9])
